{
  "source": "patent US20230117680A1",
  "about": "“CYCLOPHILIN D INHIBITORS AND USES THEREOF” (The Broad Institute, Inc., priority 2019, published 2023)",
  "key": {"CypD": {"target": "CypD (Homo sapiens, UniProt P30405)", "sequence (P30405 30-207)": "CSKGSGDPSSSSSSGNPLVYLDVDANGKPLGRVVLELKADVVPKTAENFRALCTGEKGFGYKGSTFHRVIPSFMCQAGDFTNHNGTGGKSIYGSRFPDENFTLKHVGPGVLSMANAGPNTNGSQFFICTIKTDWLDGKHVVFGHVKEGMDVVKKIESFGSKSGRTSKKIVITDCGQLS", "assay": "chymotrypsin coupled PPIase assay (Suc-AAPF-AMC substrate), CypD inhibition", "type": "biochemical", "text": "(§1) The selectivity of a compound described herein in inhibiting the activity of a first cyclophilin (e.g., CypD) over a second cyclophilin may be measured by the quotient of the IC50 value of the compound in inhibiting the activity of the second cyclophilin over the IC50 value of the compound in inhibiting the activity of the first cyclophilin. The selectivity of a compound described herein in modulating the activity of a first cyclophilin over a second cyclophilin may also be measured by the quotient of the Kd value of an adduct of the compound and the second cyclophilin over the Kd value of an adduct of the compound and the first cyclophilin (e.g., CypD). […] In certain embodiments, selectivity for inhibiting a first cyclophilin over other cyclophilins is measured by Surface Plasmon Resonance (SPR) assays as disclosed in the Examples.\n(§2) Following the synthesis of the indicated library members, in vitro inhibition (IC50) assays of these hits were conducted to obtain IC50 inhibitory data. For the IC50 assays, a chymotrypsin coupled PPIase assay using Suc-AAPF-AMC as the peptide substrate was used, whereby isomerization of a peptide substrate Suc-AAPF-AMC from the cis to trans conformation allowed for proteolysis via excess a-chymotrypsin, releasing the C-terminal coumarin fluorophore."}, "[1]": {"test_system": "10 other cyclophilins with reported prolyl isomerase activity", "assay": "cyclophilin specificity screen: CypD against the other cyclophilins", "type": "biochemical", "details": "result in words", "text": "as §1, §2\nSubsequently, to determine if the compounds could both access the S2 pocket and display CypD specificity, JOMBtrans and compound 49 were screened against the 10 other cyclophilins with reported prolyl isomerase activity. […] Co-crystal structures of JOMBtrans and 49 were solved with CypD."}, "[2]": {"test_system": "mPTP in isolated mice kidney mitochondria", "assay": "inhibition of mPTP in isolated mitochondria (tolerated Ca2+ pulses before full mPTP opening)", "details": "result in words", "protocol": "In isolated mice kidney mitochondria, the maximum number of Ca^2+ pulses that could be tolerated before full mPTP opening was measured (see FIG. 24)."}, "mPTP": {"test_system": "mPTP", "assay": "inhibition of mPTP in in vitro cell culture", "type": "cell-based", "details": "result in words", "protocol": "As disclosed herein, macrocycle inhibitors of cyclophilin D have been discovered and designed with previously unparalleled specificity. An active site binder displaying weak inhibition (IC50=15 uM) and no selectivity profile was initially optimized to 200 nM. CypD specificity was designed by building into S2 pocket residues. Bi-phenyl para-carboxylates provided the greatest level of potency (<2-30 nM) and selectivity for CypD. Co-crystal structures of these macrocycles bound to CypD were solved, and a dual binding mode was determined between active site and S2 pocket. MD simulations of co-crystal structures were conducted to observe dynamic interactions of carboxylate with S2 pocket. Initial proof of target engagement was determined via inhibition of the mPTP."}},
  "note": "Entries after “also recorded” stand apart in the source; their conditions may differ.",
  "data": [
    {"molecule": "NCCOCCNC(=O)[C@@H]1CCNC(=O)/C=C/C(=O)N2CCC[C@](Cc3ccccc3)(C2)C(=O)N[C@@H](Cc2ccc(-c3ccc(CCC(=O)O)cc3)cc2)C(=O)NCc2ccccc2CC(=O)N1", "note": "[A-81]", "values": [
      {"measurement": "IC50", "setting": "CypD; read-out: potency for CypD", "result": 2.5, "unit": "nM"},
      {"measurement": "potency for CypD (in words)", "setting": "CypD; result in words", "result": "high potency"},
      {"measurement": "specificity / selectivity profile for CypD (in words)", "setting": "[1]", "result": "high specificity; also recorded: drastic preference for inhibition of CypD"},
      {"measurement": "number of tolerated Ca2+ pulses before full mPTP opening", "setting": "[2]", "result": "extend Ca^2+ loading"},
      {"measurement": "rescue of mPTP in cell culture", "setting": "mPTP", "result": "appears to not rescue mPTP"}
    ]},
    {"molecule": "CC(=O)c1ccc(-c2ccc(C[C@@H]3NC(=O)[C@]4(Cc5ccccc5)CCCN(C4)C(=O)/C=C/C(=O)NCC[C@@H](C(=O)NCCOCCN)NC(=O)Cc4ccccc4CNC3=O)cc2)cc1", "note": "[A-22]", "values": [
      {"measurement": "number of tolerated Ca2+ pulses before full mPTP opening", "setting": "[2]", "result": "extend Ca^2+ loading"},
      {"measurement": "rescue of mPTP in cell culture", "setting": "mPTP", "result": "minimal rescue"}
    ]}
  ]
}
